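Results reflect a 48-hour exposure of cells in 96-well plates to compound at five concentrations. At the GI50, growth is halved.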 Active and inactive are the calls of the source. Rule as the data show it: active = GI50 up to about 1.1 µM and inactive = higher. Where a SMILES comes first, the peptide text is derived from it. The star is where a group is joined. Boc = CC(C)(C)OC(=O)*; tBu = CC(C)(C)*

Some test systems named below: MDA-N; M19-MEL; DMS-114; KM-20L2; LXFL 529; DMS-273; XF498; HOP-18.
What all share (experiment): DTP human tumour cell line panel, 48 h

As to `CC1(C)C[C@H]2[C@H](O)C(CO)=C3C(=O)[C@@H](O)[C@]3(C)[C@H]2C1`, in the experiment on MDA-N, the GI50 was 80.2 µM (inactive).

With `CCCCOc1ccc(S(=O)(=O)N/C(=N\O)Nc2ccc(Cl)cc2)cc1`, the GI50 in the experiment on MDA-N is 17.7 µM (inactive).

Take `CCC(=O)N1C(=O)C(CC)(CC)C(=O)N1C(=O)CC`: the GI50 in the experiment with MDA-N is > 100 µM (inactive).

`Cc1cccc(C)c1NC(=O)C(Cc1c[nH]c2ccccc12)NC(=O)OCc1ccccc1` (stereo unspecified): in the experiment with MDA-N, the GI50 was 15.7 µM (inactive).

As for `N#C/C(=C1\N=C(c2ccccc2O)Oc2ccccc21)c1ccc([N+](=O)[O-])cc1`, the GI50 with MDA-N was > 100 µM (inactive).

As for `Cc1ccc(C)c(NC(=O)CCC(=O)CC(=O)C(C)(C)C)c1`, the GI50 in the experiment with M19-MEL, with DMS-114, with KM-20L2, in the experiment on LXFL 529, in the experiment on DMS-273 and in the experiment with XF498 was > 100 µM (inactive) in each case. Further, the GI50 in the experiment with HOP-18 is > 100 µM (inactive).

As for `CN(O)C(=O)Cc1ccccc1`, the GI50 in the experiment with M19-MEL, in the experiment on DMS-114, in the experiment with KM-20L2, in the experiment with LXFL 529, in the experiment on DMS-273 and with XF498 was > 100 µM (inactive) in each case.

On to `COc1cc(OC)c(OC)cc1/C=C/c1ccc2ccccc2n1`, for which the GI50 in the experiment on MDA-N was 8.07 µM (inactive).

As for `COC(=O)N/N=C(\C)C(CN1CCCCC1)C(C1=C(O)c2ccccc2OC1)c1ccccc1` (stereo unspecified), the GI50 in the experiment on M19-MEL, in the experiment with DMS-114, in the experiment with KM-20L2, in the experiment on LXFL 529, in the experiment with DMS-273 and in the experiment with XF498 was > 100 µM (inactive) in each case. For the same molecule, the GI50 with HOP-18 was > 100 µM (inactive).

In the case of `CCOC(=O)c1nc(C)oc1C(F)(F)F`, the GI50 in the experiment with M19-MEL, with DMS-114, in the experiment on KM-20L2, in the experiment with LXFL 529 and with XF498 was > 100 µM (inactive) in each case.

For the molecule `COc1c(C)c(OC)c2c(c1O)[C@@H]1[C@@H]3Cc4c(OC)c(C)c(OC)c(O)c4[C@H](CNC(=O)c4cnc5ccccc5n4)N3[C@@H](C#N)[C@H](C2)N1C`, in the experiment with MDA-N, the GI50 was 0.00138 µM (active).

Regarding `Cc1cc(N(CCC#N)S(=O)(=O)c2ccccc2)ccc1/C=C1\N=C(c2ccc(Cl)cc2)OC1=O`, the GI50 with DMS-114, with KM-20L2, in the experiment with LXFL 529, with DMS-273 and in the experiment with XF498 was > 100 µM (inactive) throughout.

Consider `CO/N=[N+](\[O-])NC(C)C`, for which the GI50 in the experiment on MDA-N was > 100 µM (inactive).

For the molecule `O=c1c(S(=O)(=O)Oc2ccccc2)coc2cc(F)ccc12`, in the experiment on MDA-N, the GI50 is > 100 µM (inactive).

In the case of `C/C=C1/CN2CCC34c5ccccc5N(C)C23C2CC1C4(C(=O)OC)C(O)O2` (stereo unspecified), in the experiment on MDA-N, the GI50 was > 100 µM (inactive).

In the case of `O=C(O)C1CCCCC1c1c2ccc(=O)c(O)c-2oc2c(O)c(O)ccc12` (stereo unspecified), the GI50 with MDA-N is 17.2 µM (inactive).

With `CC(C)/C=C1\CCC(CN(C)C)C1=O` (stereo unspecified), the GI50 in the experiment on M19-MEL was 9.27 µM (inactive); in the experiment on DMS-114 it was 3.19 µM (inactive); with KM-20L2, 9.75 µM (inactive); in the experiment on LXFL 529, 1.5 µM (inactive); in the experiment with XF498, 1.91 µM (inactive); in the experiment on HOP-18 it was 3.36 µM (inactive). For the same molecule, the GI50 with MDA-N is 2.92 µM (inactive).

As for `CCOc1ccc(Nc2nc(N)nc(N)c2N=O)cc1`, the GI50 in the experiment on MDA-N is 62.1 µM (inactive).

For the molecule `O=C(CC1=Nc2nnc(CCCCCCCc3nnc4n3C(=O)C(CC(=O)c3ccccc3)=N4)n2C1=O)c1ccccc1`, the GI50 with M19-MEL, in the experiment with DMS-114, in the experiment with KM-20L2, in the experiment on LXFL 529, with XF498 and in the experiment on HOP-18 was > 100 µM (inactive) each time.

On to `CN(C)CCn1c(=O)c2ccc(NCCN3CCNCC3)c3c(=O)c4ccccc4n(c1=O)c23`, for which the GI50 with MDA-N is 3.68 µM (inactive).

Take `CCCCSC1=N/C(=C\c2ccco2)C(Cl)=N1`: the GI50 in the experiment on MDA-N was > 100 µM (inactive).

Turning to `CC12CCCC3(CC(=O)C(C)(C)C3C(=O)C1)C2` (stereo unspecified), in the experiment on MDA-N, the GI50 was > 100 µM (inactive).

For the molecule `Clc1nc(Nc2nc3ccccc3[nH]2)nc(Cl)c1-c1ccccc1`, the GI50 in the experiment with MDA-N is 10.3 µM (inactive).

In the case of `CC(C)=Cc1cc(C)c2c(O)cc(C)c3c2c1C(C)=C(O)C3=O`, in the experiment with MDA-N, the GI50 was 33 µM (inactive).

Regarding `CCOC(=O)[C@H]1O[C@@H]1C(=O)NC(CC(C)C)C(=O)NCCC(C)C` (stereo partly specified), the GI50 in the experiment on MDA-N is > 100 µM (inactive).

As for `COCOC1CCCC[C@@]1(OCCOCCO[C@@]1(c2ccccc2)CCCC[C@H]1OCOC)c1ccccc1` (stereo partly specified), the GI50 with M19-MEL, in the experiment on DMS-114, in the experiment with KM-20L2, with LXFL 529, in the experiment with DMS-273 and in the experiment with XF498 was > 100 µM (inactive) each time. For the same molecule, the GI50 with HOP-18 is > 100 µM (inactive).

For `O=C1Nc2ccccc2N/C1=C\C(=O)C(F)F`, the GI50 with MDA-N was > 100 µM (inactive).

Regarding `COc1ccc2c(c1)/C(=C\c1c(C)nc3sc(C)cn13)C(=O)N2`, in the experiment on MDA-N, the GI50 was 0.124 µM (active).

`Cc1c2c(Cl)c3c(c(Cl)c2c(C)c2c(Cl)c4c(c(Cl)c12)C(c1ccccc1)(c1ccccc1)C4(c1ccccc1)c1ccccc1)C(c1ccccc1)(c1ccccc1)C3(c1ccccc1)c1ccccc1`: in the experiment on MDA-N, the GI50 was > 100 µM (inactive).

On to `COc1ccccc1Nc1nc2c([nH]1)c(=O)n(C)c(=O)n2C`, for which the GI50 in the experiment with MDA-N was > 10 µM (inactive).

For the molecule `Cc1nn(C(=O)c2ccncc2)c2c1C(c1ccccc1)SC(=N)N2` (stereo unspecified), the GI50 in the experiment with MDA-N is > 10 µM (inactive).

Take `CC(OC(C)(C)C)C(NC(=O)C(N)CCCCNC(=O)OC(C)(C)C)C(=O)NC(Cc1ccccc1)C(=O)O` (stereo unspecified) (H-Lys(Boc)-Thr(tBu)-Phe-OH; configuration not given here): the GI50 with MDA-N was > 100 µM (inactive).

Consider `NC(=O)c1cccc(OCC(O)CO)c1` (stereo unspecified), for which the GI50 in the experiment with MDA-N is > 100 µM (inactive).

On to `CN(C)CCNc1nc2c(c(=O)n(C)c(=O)n2C)n1C`, for which the GI50 with MDA-N was > 100 µM (inactive).

Take `O=C1OC(c2ccccc2)=N/C1=C\c1ccc2ccccc2c1`: the GI50 in the experiment on M19-MEL, in the experiment with DMS-114, with KM-20L2, in the experiment on XF498 and in the experiment with HOP-18 was > 100 µM (inactive) each time.

Consider `CC(=O)OCOC(=O)CN(CC(=O)OCOC(C)=O)Cc1cc2c(cc1OC(C)=O)Oc1cc(OC(C)=O)c(CN(CC(=O)OCOC(C)=O)CC(=O)OCOC(C)=O)cc1C21OC(=O)c2ccccc21`, for which, in the experiment on MDA-N, the GI50 is 0.309 µM (active).

For `O=[N+]([O-])C=C(c1ccc(Cl)cc1)c1ccc(Cl)cc1`, the GI50 in the experiment on DMS-114 is 15.2 µM (inactive); in the experiment with KM-20L2, 18.9 µM (inactive); in the experiment with LXFL 529 it was 15.1 µM (inactive); with DMS-273, 5.69 µM (inactive).

With `CNN1C(=O)c2c(C)c(C)c(C#N)c(N)c2C1=O`, the GI50 in the experiment on MDA-N is > 100 µM (inactive).

Turning to `CCNCCNc1c2ccccc2nc2ccccc12`, the GI50 in the experiment with MDA-N was 1.28 µM (inactive).

Turning to `O=C(O)C1C2C=CC(O2)C1C(=O)NCc1cccnc1` (stereo unspecified), the GI50 in the experiment on MDA-N was > 100 µM (inactive).

Turning to `c1ccc2c(c1)Nc1cccc3c1c-2nc1cc2ccccc2cc13`, in the experiment on MDA-N, the GI50 was 1.45 µM (inactive).

Regarding `O=C(O)c1cc(=O)c2c(OCC(O)COc3cccc4oc(C(=O)O)cc(=O)c34)cccc2o1`, the GI50 with MDA-N is > 71.8 µM (inactive).

For the molecule `O=C(Nc1ccn(CCI)c(=O)n1)c1ccccc1`, the GI50 in the experiment with M19-MEL, in the experiment on DMS-114, in the experiment with KM-20L2, in the experiment with LXFL 529, with DMS-273 and in the experiment on HOP-18 was > 100 µM (inactive) throughout.

Consider `COc1ccc2c(c1OC)C(=O)N/C2=C\c1c(CCN(C)C)cc2c(c1OC)OCO2`, for which the GI50 in the experiment on MDA-N is 25.6 µM (inactive).

With `CC(=O)OC1CCn2nnc(CO[Si](C)(C)C(C)(C)C)c21` (stereo unspecified), the GI50 in the experiment on DMS-114, in the experiment with KM-20L2, in the experiment with LXFL 529, in the experiment on DMS-273, with XF498 and with HOP-18 was > 100 µM (inactive) each time.

Regarding `S=C(S)N1CCN(c2cccc(Cl)c2)CC1`, the GI50 in the experiment on MDA-N was > 100 µM (inactive).

With `Cc1ccc(/N=N/c2c(C)c(C#N)c(=S)n(C3OC(CO)C(O)C(O)C3O)c2-c2ccccc2)cc1` (stereo unspecified), the GI50 with MDA-N was 8.07 µM (inactive).

Take `N#CC(C#N)=Cn1c(=S)[nH]c2ccc([N+](=O)[O-])cc21`: the GI50 with MDA-N is > 100 µM (inactive).

For `CNc1cc(N)ccc1C(=O)N1CCC[C@H]1CO`, the GI50 in the experiment on MDA-N is > 100 µM (inactive).

Turning to `CN1CCN(C(=S)N(C)C(=O)c2ccco2)CC1`, the GI50 with MDA-N is > 100 µM (inactive).

As for `Cc1ccc(C(=O)C#Cc2cn(C3CC(O)C(CO)O3)c(=O)[nH]c2=O)cc1` (stereo unspecified), the GI50 with MDA-N is > 100 µM (inactive).

`COc1ccc(-c2cc(C3CC3)nc(SCC(=O)O)c2C#N)cc1`: the GI50 with MDA-N was > 100 µM (inactive).

On to `CC(=O)O[C@H]1C[C@@H](O[C@H]2[C@@H](O)C[C@H](O[C@H]3[C@@H](O)C[C@H](O[C@H]4CC[C@@]5(C)[C@H](CC[C@@H]6[C@@H]5C[C@@H](O)[C@]5(C)[C@@H](C7=CC(=O)OC7)CC[C@]65O)C4)O[C@@H]3C)O[C@@H]2C)O[C@H](C)[C@H]1O.CC(=O)O[C@H]1[C@@H](O)C[C@@H](O[C@H]2[C@@H](O)C[C@H](O[C@H]3[C@@H](O)C[C@H](O[C@H]4CC[C@@]5(C)[C@H](CC[C@@H]6[C@@H]5C[C@@H](O)[C@]5(C)[C@@H](C7=CC(=O)OC7)CC[C@]65O)C4)O[C@@H]3C)O[C@@H]2C)O[C@@H]1C`, for which the GI50 with MDA-N is 0.0402 µM (active).

For the molecule `CCOC(=O)c1nc2ccc(C(F)(F)F)cc2[nH]c1=O`, in the experiment on MDA-N, the GI50 was > 100 µM (inactive).

For `CC(=O)Nc1nc(NC(C)=O)c2nc(CO)[nH]c2n1`, the GI50 with MDA-N was > 100 µM (inactive).

Turning to `CCC(=C/[C@H](C)C/C=C/C(C)=C/[C@@H](C)C(=O)[C@@H](C)[C@H](O)[C@@H](C)CC)/C=C/[C@H]1CC=CC(=O)O1` [CALLYSTATIN A], the GI50 in the experiment on MDA-N was < 0.0012 µM (active).

Consider `O=C(NCC(=O)N1CCOC1=O)OCc1ccccc1`, for which the GI50 with M19-MEL, in the experiment with DMS-114, with KM-20L2, in the experiment with DMS-273, in the experiment on XF498 and in the experiment on HOP-18 was > 100 µM (inactive) in each case.

As a reminder, the GI50 is the concentration that inhibits growth by half.
